Assays:
[1] = test system: primary CLL cells in the presence of HS5 stromal protection; test: Viability of primary CLL cells in stromal co-culture (7AAD); assay type: cell-based; settings: Homo sapiens, CLL cell, 48 hours, read-out: decrease of viability
Procedure: Methods: Primary CLL B cells were isolated from the whole blood of consented patients by FICOLL density centrifugation and rosette-sep negative selection. Annexin V and propidium iodide flow cytometry was used to measure patient CLL cell viability and 7AAD was used to measure viability in stromal co-culture. CD40 and CD86 expression was evaluated via flow cytometry subsequent to sustained 3.2 μM CpG stimulation. BCR signaling in primary CLL cells was investigated by immunoblot succeeding 1 hour treatment and following 1 hour or 24 hours of incubation with Compound 1 in XLA cell lines. MTS values were read after 24 hours of drug incubation. ITK inhibition was investigated via immunoblot after stimulation with anti-CD3 and anti-CD28 and incubation with Compound 1 for 1 hour. Compound 1 was used at a concentration of 1 μM in preclinical studies unless otherwise noted.

[2] = Phase 1a study Stage 2: food effect on pharmacokinetics; assay type: in vivo, human; settings: 200 mg oral
Procedure: In Stage 2, the effects of food on the pharmacokinetics of Compound 2 were assessed. In this stage, 12 newly enrolled subjects (6 males, 6 females; Cohort 6) were administered Compound 2 on two separate occasions, either in a fasting or fed state, with a period of ≥72 hours between the two doses. The Compound 2 dose level was 200 mg. The 12 subjects were randomized such that 6 subjects (3 males, 3 females) received Compound 2 after an overnight fast, and 6 subjects (3 males, 3 females) received Compound 2 after ingestion of a standardized, high-fat meal. Approximately 4 days later, the subjects were crossed over so that those who received Compound 2 without food in the first period then received the drug with food, while those who received Compound 2 with food in the first period then received the drug without food.
The effects of food on the pharmacokinetics of Compound 2 were assessed after oral administration of 200 mg Compound 2 to 12 subjects in the fed and fasted states. The absorption rate of Compound 2 in fed state was decreased, with Tmax delayed by 2 hours and Cmax decreased by about 30%; however, there was no impact on the extent of absorption (AUC) and elimination (T½) of Compound 2.

apparent total body clearance and volume of distribution, fed vs fasted [2] | impact of food on extent of absorption (AUC) and elimination (T½) ([2]; fed vs fasted) | decrease of Cmax in fed state ([2]; fed vs fasted, 12 subjects) | Tmax ([2]; both sexes, human, plasma, fed vs fasted, 12 subjects, read-out: delay of Tmax in fed state) [h] | Structure (SMILES) | cytotoxicity at 1 µM [1] [%]
 |  |  |  | NC(=O)[C@H]1CCN(c2ncnc(N)c2F)C[C@@H]1N1CCC[C@@H](Nc2cc(Cl)cc(C(F)(F)F)c2)C1=O [Compound 1, (3R,3′R,4′S)-1′-(6-amino-5-fluoropyrimidin-4-yl)-3-((3-chloro-5-(trifluoromethyl)phenyl)amino)-2-oxo-[1,3′-bipiperidine]-4′-carboxamide] | 5.5
comparable in both food conditions | no impact | about 30% | 2 | NC(=O)[C@H]1CCN(c2ncnc(N)c2F)C[C@@H]1N1CCC[C@@H](Nc2cc(Cl)cc(C(F)(F)F)c2)C1=O [Compound 2] | 
